From patent publication US20150118179A1, “BIOCIDAL COMPOUNDS AND METHODS FOR USING SAME” (UNIVERSITY OF MANITOBA, priority 2012, published 2015)
Several values for one entry are separate records, joined by “and”; a condition that tells them apart may be missing. Identical values can stand only once.

How the values were obtained:
[1] = tested on: P. aeruginosa 73104; assay: Biocidal activity in bacterial suspension (Example 18); assay type: cell-based, Pseudomonas aeruginosa; conditions: 15 ppm [Cl+]; for Reduction of P. aeruginosa: 10^6 cfu/mL P. aeruginosa, within 60 min of contact
Experimental: Logarithmic-phase cultures of P. aeruginosa were prepared by initially suspending several colonies in cation-supplemented Mueller-Hinton broth (Oxoid, Nepean, Ontario, Canada) at a density equivalent to a 0.5 McFarland standard (1×10^8 cfu/mL). This suspension was then diluted 1:100 and 20 μL of the diluted suspension was further diluted in 60 mL of cation-supplemented Mueller-Hinton broth. Following overnight growth at 37° C., suspensions were diluted 1:[…] to get inoculums of approximately 1×10^6 or 1×10^5 cfu/mL.
(§1) Biocidal activity of synthetic compounds was completed as followed. To 20 mL of bacterial suspension (10^5 or 10^6 cfu/mL) in a centrifuge tube was added 30 μL solution of synthetic compounds (0.282 M stock solution) to achieve a final [Cl^+] of 15 ppm. Timing of the exposure to the disinfectant was started immediately with the addition of the synthetic compound. After predetermined contact time, 1.0 mL aliquots were withdrawn and added to an equal volume of 0.02 N sodium thiosulfate in PBS (0.1 M, pH 7.4). The quenched suspension was serially diluted and 100 μL of each resulting dilution was placed onto nutrient agar plates. After being incubated at 37° C. for 24 hours, the viable bacterial colonies on the plates were counted. Bacterial reduction was reported according to:
(§2) Percentage reduction of bacteria (%)=(A−B)/A×100
(§3) Log reduction=Log(A/B) (4)
(§4) where A is the number of bacteria in the starting inoculum (cfu/mL), and B is the number of bacteria retrieved from synthetic compounds (cfu/mL).

[2] = tested on: CA-MRSA 40065; assay: as above; assay type: cell-based, Staphylococcus aureus; conditions: Table 2, 15 ppm [Cl+], inoculum 1.57-1.75 × 10^6 CFU/mL
Experimental: Logarithmic-phase cultures of MRSA were prepared using similar way except TSA broth was used instead.
as §1, §2, §3, §4

[3] = Table 3, contact 3 min, inoculum 2.26 × 10^5 CFU/mL
[4] = Table 3, contact 5 min, inoculum 2.26 × 10^5 CFU/mL
[5] = Table 3, contact 10 min, inoculum 2.26 × 10^5 CFU/mL
[6] = Table 3, contact 60 min, inoculum 2.26 × 10^5 CFU/mL
[7] = Table 3, contact 90 min, inoculum 2.26 × 10^5 CFU/mL
[8] = Table 4, contact 3 min, inoculum 2.26-2.98 × 10^5 CFU/mL
[9] = Table 4, contact 5 min, inoculum 2.26-2.98 × 10^5 CFU/mL
[10] = Table 4, contact 10 min, inoculum 2.26-2.98 × 10^5 CFU/mL
[11] = Table 4, contact 20 min, inoculum 2.26-2.98 × 10^5 CFU/mL
[12] = Table 4, contact 30 min, inoculum 2.26-2.98 × 10^5 CFU/mL
[13] = Table 4, contact 45 min, inoculum 2.26-2.98 × 10^5 CFU/mL
[14] = Table 4, contact 60 min, inoculum 2.26-2.98 × 10^5 CFU/mL

SMILES | Reduction of P. aeruginosa [1] | Bacteria reduction % [1, 3] [%] | Bacteria reduction % [1, 4] [%] | Bacteria reduction Log10 [1, 5] [Log10] | Bacteria reduction % [1, 6] [%] | Bacteria reduction Log10 [1, 6] [Log10] | Bacteria reduction % [1, 7] [%] | Bacteria reduction Log10 [1, 7] [Log10] | Bacteria reduction % [1, 8] [%] | Bacteria reduction Log [1, 8] [Log] | Bacteria reduction % [1, 9] [%] | Bacteria reduction Log [1, 9] [Log] | Bacteria reduction % [1, 10] [%] | Bacteria reduction Log [1, 10] [Log] | Bacteria reduction % [1, 11] [%] | Bacteria reduction % [1, 12] [%] | Bacteria reduction Log [1, 12] [Log] | Bacteria reduction % [1, 13] [%] | Bacteria reduction Log [1, 13] [Log] | Bacteria reduction % [1, 14] [%] | other results
CC1(C)C(=O)N(CCC[N+](C)(C)CC[N+](C)(C)C)C(=O)N1Cl.[Cl-].[Cl-] [Compound 12] | cannot bring any significant reduction | 39.8 ± 10.0 | 44.7 ± 1.9 | 0.43 ± 0.01 | 100 | 5.35 | 100 | 5.35 | 39.8 | 0.22 | 44.7 | 0.26 | 62.8 | 0.43 | 99.70 | 100 | 4.82 | 100 | 5.47 | 100 | Bacteria reduction Log [1, 11]: 2.50 Log; Bacteria reduction Log [1, 14]: 5.47 Log; Bacteria reduction % ([2]; contact 3 min): 88.0%; Bacteria reduction Log10 ([2]; contact 3 min): 0.92 Log10; Bacteria reduction % ([2]; contact 5 min): 92.3%; Bacteria reduction Log10 ([2]; contact 5 min): 0.92 Log10; Bacteria reduction % ([2]; contact 10 min): 94.2%; Bacteria reduction Log10 ([2]; contact 10 min): 1.24 Log10; Bacteria reduction % ([2]; contact 60 min): 99.5%; Bacteria reduction Log10 ([2]; contact 60 min): 2.31 Log10
CC1(C)C(=O)N(CCC[N+](C)(C)CCCN2C(=O)N(Cl)C(C)(C)C2=O)C(=O)N1Cl.[Cl-] [Compound 14] | cannot bring any significant reduction | 22.6 ± 4.4 | 24.8 ± 10.0 | 0.14 ± 0.07 | 100 | 5.35 | 100 | 5.35 | 22.6 | 0.11 | 24.8 | 0.13 | 26.6 | 0.14 | 70.8 | 99.96 | 3.39 | 100 | 5.47 | 100 | Bacteria reduction % [1, 5]: 26.6% and 26.6 ± 12.5%; Bacteria reduction Log [1, 14]: 5.47 Log; Bacteria reduction % ([2]; contact 1 min): 85.8%; Bacteria reduction Log10 ([2]; contact 1 min): 0.85 Log10; Bacteria reduction % ([2]; contact 3 min): 79.1%; Bacteria reduction Log10 ([2]; contact 3 min): 0.68 Log10; Bacteria reduction % ([2]; contact 5 min): 64.3%; Bacteria reduction Log10 ([2]; contact 5 min): 0.45 Log10; Bacteria reduction % ([2]; contact 10 min): 91.9%; Bacteria reduction Log10 ([2]; contact 10 min): 1.09 Log10; Bacteria reduction % ([2]; contact 60 min): 99.5%; Bacteria reduction Log10 ([2]; contact 60 min): 2.32 Log10
